These results are taken from US20220306640A1, “HYDANTOIN DERIVATIVE” (ONO PHARMACEUTICAL CO., LTD., priority 2019, published 2022).

One assay deals with T1, DDR1 (Homo sapiens, UniProt Q08345).
T1 construct: purchased Invitrogen
In words: Measurement of DDR1 inhibitory activity (LanthaScreen system, in vitro test). Format: binding. The conditions noted are these: GST-DDR1, Kinase tracer 178. In a few lines: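 TR-FRET tracer-displacement binding assay with GST-DDR1, Kinase tracer 178 and Eu-anti-GST antibody in HEPES pH 7.5, MgCl2, EGTA, Brij-35 buffer, 1% DMSO. Compound preincubated with enzyme 15 min at RT, then tracer/antibody 1 h at RT; 665/615 nm read. Percent inhibition versus no-enzyme and DMSO controls; IC50 from inhibition curves.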
A general note: Time-resolved FRET reads energy transfer from a long-lived donor to a nearby acceptor.

For assay [1], the target named is T2, DDR1 phosphorylation in kidney (Mus musculus, UniProt Q03146).
T2 construct: from tissue; host or cells: kidney of C57BL/6J mice (UUO model)
T2 sequence (Q03146 20-911): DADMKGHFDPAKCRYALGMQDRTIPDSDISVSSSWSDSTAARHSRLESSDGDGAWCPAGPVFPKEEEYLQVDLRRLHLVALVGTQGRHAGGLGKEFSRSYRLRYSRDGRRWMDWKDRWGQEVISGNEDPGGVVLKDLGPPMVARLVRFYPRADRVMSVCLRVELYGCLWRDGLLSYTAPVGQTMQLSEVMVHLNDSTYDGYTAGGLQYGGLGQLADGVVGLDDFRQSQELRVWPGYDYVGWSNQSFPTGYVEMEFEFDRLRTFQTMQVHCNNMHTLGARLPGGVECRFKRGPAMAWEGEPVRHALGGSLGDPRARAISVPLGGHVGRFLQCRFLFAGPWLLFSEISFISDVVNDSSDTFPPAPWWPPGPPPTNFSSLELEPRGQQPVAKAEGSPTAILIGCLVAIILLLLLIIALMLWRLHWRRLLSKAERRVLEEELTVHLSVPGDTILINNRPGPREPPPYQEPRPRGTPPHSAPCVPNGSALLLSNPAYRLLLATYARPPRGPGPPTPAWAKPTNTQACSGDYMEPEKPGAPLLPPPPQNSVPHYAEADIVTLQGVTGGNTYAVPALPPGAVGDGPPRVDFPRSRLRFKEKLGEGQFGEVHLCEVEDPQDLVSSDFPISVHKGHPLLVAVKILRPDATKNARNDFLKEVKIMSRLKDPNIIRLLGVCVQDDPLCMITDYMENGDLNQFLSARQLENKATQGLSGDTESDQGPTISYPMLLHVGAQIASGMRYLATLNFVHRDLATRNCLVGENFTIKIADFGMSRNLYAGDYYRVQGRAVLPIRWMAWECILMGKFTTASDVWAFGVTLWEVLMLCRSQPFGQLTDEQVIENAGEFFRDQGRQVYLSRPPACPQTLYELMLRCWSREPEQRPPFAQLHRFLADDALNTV
Kind of assay: Measurement of DDR1 phosphorylation suppression rate by using UUO (unilateral ureteral obstruction) model (in vivo test). More on the design: species or system C57BL/6J mice. The conditions noted are these: UUO mice, dose of 10 mg/kg, oral single dose, kidney 8 h after dosing, relative to the difference between the untreated group and control group. The method, then: Biological Example 4: Measurement of DDR1 phosphorylation suppression rate by using UUO (unilateral ureteral obstruction) model (in vivo test).
Species & Strain: C57BL/6J mice
Mice were randomly assigned to respective groups based on the animal's body weight.
Surgery was performed in male C57BL/6J mice on Day 0. With the mice under anesthesia, operation area was disinfected with 75% alcohol after shaving. Mice in UUO group were exposed left ureter through a small incision on the left side of the abdomen and ligated with 3-0 silk at two locations about 0.5 cm below the renal hilum. Normal control mice were had their ureters manipulated but not ligated. Zoletil combined with Xylazine (20:1, v:v) were used in this study, the final dose of Zoletil was 25 mg/kg.
Route: oral administration
Dosage: 1, 3 and 10 mg/kg
Body weights of all animals were measured prior surgery and prior dosing. Clinical observations of all animals were monitored and recorded daily throughout the study. […]
On Day 3, all animals were euthanized with carbon dioxide. […] Then the samples were analyzed by Elisa.
DDR1 and p-DDR1 levels in ipsilateral kidney samples were analyzed by Elisa method. […]
All statistical tests were conducted, and the level of significance was set at 5% or P<0.05. The group means and standard deviation were calculated for all measurement parameters as study designed. […]

The structures appear in SMILES notation.

T1 sequence (Q08345 19-913): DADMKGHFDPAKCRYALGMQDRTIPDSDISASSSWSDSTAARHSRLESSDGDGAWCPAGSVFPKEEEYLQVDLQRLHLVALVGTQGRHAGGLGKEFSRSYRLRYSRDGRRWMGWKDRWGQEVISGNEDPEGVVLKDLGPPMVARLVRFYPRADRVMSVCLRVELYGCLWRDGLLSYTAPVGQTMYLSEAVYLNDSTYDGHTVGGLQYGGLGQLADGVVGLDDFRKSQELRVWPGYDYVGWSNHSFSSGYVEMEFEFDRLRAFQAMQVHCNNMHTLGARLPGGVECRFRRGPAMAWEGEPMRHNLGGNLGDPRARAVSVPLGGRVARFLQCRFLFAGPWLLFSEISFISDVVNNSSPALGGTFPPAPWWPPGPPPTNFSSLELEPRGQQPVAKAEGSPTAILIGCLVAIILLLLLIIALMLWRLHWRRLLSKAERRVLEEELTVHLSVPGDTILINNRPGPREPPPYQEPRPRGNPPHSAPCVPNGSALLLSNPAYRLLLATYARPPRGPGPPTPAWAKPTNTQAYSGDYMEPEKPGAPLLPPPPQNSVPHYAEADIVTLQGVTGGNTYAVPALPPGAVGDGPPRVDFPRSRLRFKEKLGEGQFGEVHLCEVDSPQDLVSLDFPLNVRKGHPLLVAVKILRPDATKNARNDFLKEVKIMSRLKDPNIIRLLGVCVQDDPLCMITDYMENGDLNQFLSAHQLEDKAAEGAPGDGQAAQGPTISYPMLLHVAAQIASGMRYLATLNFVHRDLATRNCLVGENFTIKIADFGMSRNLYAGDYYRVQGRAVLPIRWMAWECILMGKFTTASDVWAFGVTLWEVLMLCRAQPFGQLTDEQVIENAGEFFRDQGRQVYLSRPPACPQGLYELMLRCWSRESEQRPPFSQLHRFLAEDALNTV

By IC50 is commonly meant the concentration that inhibits the measured activity by half. A lower IC50 goes with inhibition by little substance. On DDR1, `Cc1cc(Oc2ccnc(N)n2)ccc1N1C(=O)CN(c2ccc(F)c(OC(F)(F)F)c2)C1=O` [Example 3(110), 3-{4-[(2-amino-4-pyrimidinyl)oxy]-2-methylphenyl}-1-[4-fluoro-3-(trifluoromethoxy)phenyl]-2,4-imidazolidinedione] gave an IC50 of 1 nM. Moreover, in assay [1], the DDR1 phosphorylation suppression worked out at 50%.
